Assay results taken from patent publication US20250108023A1, “Products for Masking Bitterness” (The Third People's Hospital of Henan Province, priority 2023, published 2025).

Target: T1, sodium ion channel of Trpm5 bitter receptor (Mus musculus, UniProt Q9JJH7)
T1 construct: Put the removed tongue in a 2 ml EP tube, add 1-1.5 ml of 0.25% trypsin solution; from tissue; host or cells: cells dissociated with trypsin from mouse tongue
T1 sequence (Q9JJH7 1-1158): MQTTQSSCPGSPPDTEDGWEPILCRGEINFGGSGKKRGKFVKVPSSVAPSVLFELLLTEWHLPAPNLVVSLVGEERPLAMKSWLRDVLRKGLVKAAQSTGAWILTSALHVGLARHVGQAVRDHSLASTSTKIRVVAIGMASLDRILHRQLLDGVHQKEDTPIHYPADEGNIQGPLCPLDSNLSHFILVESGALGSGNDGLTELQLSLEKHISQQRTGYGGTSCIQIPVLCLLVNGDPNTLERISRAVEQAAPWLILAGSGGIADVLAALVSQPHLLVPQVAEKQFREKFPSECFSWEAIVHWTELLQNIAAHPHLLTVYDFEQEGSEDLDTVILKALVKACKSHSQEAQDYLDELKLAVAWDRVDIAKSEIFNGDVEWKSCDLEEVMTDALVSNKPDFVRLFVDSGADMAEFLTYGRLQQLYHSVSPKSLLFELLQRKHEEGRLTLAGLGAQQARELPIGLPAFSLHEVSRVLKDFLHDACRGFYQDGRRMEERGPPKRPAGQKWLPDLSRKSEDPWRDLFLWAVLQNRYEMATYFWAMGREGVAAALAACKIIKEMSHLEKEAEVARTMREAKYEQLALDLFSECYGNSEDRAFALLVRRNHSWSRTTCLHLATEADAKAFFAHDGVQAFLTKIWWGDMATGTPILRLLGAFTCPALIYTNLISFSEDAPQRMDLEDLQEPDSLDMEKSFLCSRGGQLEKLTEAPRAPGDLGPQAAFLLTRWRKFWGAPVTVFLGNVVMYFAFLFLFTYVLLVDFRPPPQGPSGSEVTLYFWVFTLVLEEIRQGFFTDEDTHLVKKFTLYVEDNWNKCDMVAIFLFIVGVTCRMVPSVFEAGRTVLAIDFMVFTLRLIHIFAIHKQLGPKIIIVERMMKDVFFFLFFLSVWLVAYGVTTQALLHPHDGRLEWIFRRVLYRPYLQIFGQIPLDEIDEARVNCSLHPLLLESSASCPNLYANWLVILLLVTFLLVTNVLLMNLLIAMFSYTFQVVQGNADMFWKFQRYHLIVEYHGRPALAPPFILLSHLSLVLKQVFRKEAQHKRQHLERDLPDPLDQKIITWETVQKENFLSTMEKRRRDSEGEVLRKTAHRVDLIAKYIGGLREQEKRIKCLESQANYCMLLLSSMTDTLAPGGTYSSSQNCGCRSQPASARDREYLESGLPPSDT
Assay: Immunofluorescence experiment of sodium ion channels in mouse tongue cells stimulated with bitter agent
Assay type: cell-based, mice
Conditions: for blocking effect on the sodium ion channel (result analysis in words): judged from change of sodium ion fluorescence after bitter drug
Protocol: The mouse was killed by dislocation, and the tongue was removed (minimizing tongue bleeding), disinfected with alcohol for 2 minutes (adding sodium citrate for anticoagulation), and washed with D-Hanks solution or rinsed with 10 ml of saline solution drawn by a syringe.
Take out the centrifuge tube from the constant temperature incubator, shake for 2 minutes, blow the undigested tongue several times with the gun tip, take out the tongue, cover it with the EP tube cap, put it in a centrifuge, centrifuge at 3000 rpm for 3 minutes, discard the supernatant, add cell culture medium (containing 10% inactivated serum), blow and disperse the cells, and place it in a 37° C. constant temperature incubator for 30 min to allow the cells to recover.
(1) Take out the prepared ENG-2 AM storage solution and warm it to room temperature for use, keeping it away from light. The concentration of the pre-prepared stock solution is 2 mM and it is stored at −18° C. for future use.
(2) Dilute the ENG-2 AM+DMSO stock solution to a […] working solution using serum-free culture medium.
(3) Load the probe in a serum-free culture medium containing an appropriate concentration of AM probe.
Take out the cells from the incubator, centrifuge, and discard the culture medium. Wash the cells once with D-Hanks solution, centrifuge, and discard the culture medium. Add 1 ml of culture medium again, then add 300 ul of sodium ion probe dilution solution, blow and disperse the cells, and incubate the cells at room temperature or 37° C. for 1 hour.
At the end of incubation, centrifuge at 100 rpm for 2 minutes, discard the supernatant, add 500 ul of cell culture medium without AM probe, blow and disperse the cells, and incubate for 20-60 min to ensure that the cells completely deesterify the AM group.
(4) Take 10 ul of incubation solution and drop it into the center of the cell counting plate, cover it with a slide, and observe it under a fluorescence microscope.
(5) Use a low-power microscope to find the cells, open the fluorescence path, detect the fluorescence signal with a fluorescence microscope, change to a high-power microscope, find the appropriate observation cells, observe and take pictures to record the initial signal.
(2) Experimental drugs: Add 5 ul of the tested drug to one side of the cover glass on the cell counting plate, use absorbent paper to absorb water on the opposite side, let the solution soak the cells, and then use a fluorescence microscope to observe and take 3-5 photos, one every 1-2 minutes; then add 5 ul of the standard bitter drug to one side of the cover glass on the cell counting plate, use absorbent paper to absorb water on the opposite side, let the solution soak the cells, and then use a fluorescence microscope to observe and take 3-5 photos, one every 1-2 minutes.
(5) Data analysis: Use Image J-Fiji software to analyze the images, compare the average values of the fluorescence pixels, remove the base number and compare them in the table, draw FIGS. 4-6, and use SPSS18.0 to perform chi-square tests to compare the differences between the data groups.

[1] = Bitterant 60 s (2% metronidazole solution)
[2] = Bitterant 120 s (2% metronidazole solution)
[3] = Bitterant 180 s (2% metronidazole solution)
[4] = Initial (before addition of drug), sodium ion dye ENG-2 AM
[5] = Bitterant 240 s (2% metronidazole solution)

CC(C)[C@@H]1CC[C@@H](C)C[C@H]1OC(=O)CCC(=O)O [Menthyl succinate]
average value of fluorescence brightness (Addition of drugs): 28.92 | average value of fluorescence brightness, base number removed (Addition of drugs): 0.041 | average value of fluorescence brightness [1]: 28.747 | average value of fluorescence brightness, base number removed [1]: −0.132 | average value of fluorescence brightness [2]: 28.8 | average value of fluorescence brightness, base number removed [2]: −0.079 | average value of fluorescence brightness [3]: 28.851 | average value of fluorescence brightness, base number removed [3]: −0.028 | average value of fluorescence brightness, base number removed (Initial): 0 | average value of fluorescence brightness [4]: 28.879 | blocking effect on the sodium ion channel (result analysis in words): can block the sodium ion channel of Trpm5 bitter receptor

O=CC=Cc1ccccc1 [Cinnamaldehyde, 3-phenyl-2-propenal]
average value of fluorescence brightness (Addition of drugs): 31.017 | average value of fluorescence brightness, base number removed (Addition of drugs): −0.328 | average value of fluorescence brightness [1]: 30.893 | average value of fluorescence brightness, base number removed [1]: −0.452 | average value of fluorescence brightness [2]: 30.691 | average value of fluorescence brightness, base number removed [2]: −0.654 | average value of fluorescence brightness [3]: 30.597 | average value of fluorescence brightness, base number removed [3]: −0.748 | average value of fluorescence brightness, base number removed (Initial): 0 | average value of fluorescence brightness [4]: 31.345 | blocking effect on the sodium ion channel (result analysis in words): can block the sodium ion channel of Trpm5 bitter receptor

COc1cc(C(=O)O)ccc1O [Vanillic acid, 3-methoxy-4-hydroxybenzoic acid]
average value of fluorescence brightness (Addition of drugs): 26.795 | average value of fluorescence brightness, base number removed (Addition of drugs): −0.107 | average value of fluorescence brightness [1]: 26.689 | average value of fluorescence brightness, base number removed [1]: −0.213 | average value of fluorescence brightness [2]: 26.699 | average value of fluorescence brightness, base number removed [2]: −0.203 | average value of fluorescence brightness [3]: 26.725 | average value of fluorescence brightness, base number removed [3]: −0.177 | average value of fluorescence brightness, base number removed (Initial): 0 | average value of fluorescence brightness [4]: 26.902 | blocking effect on the sodium ion channel (result analysis in words): have poor effects and do not have bitterness masking effect

C=CC(C)(O)CCC=C(C)C (stereo not shown) [Linalool, linalool]
average value of fluorescence brightness (Addition of drugs): 27.648 | average value of fluorescence brightness, base number removed (Addition of drugs): −0.135 | average value of fluorescence brightness [1]: 27.649 | average value of fluorescence brightness [2]: 27.44 | average value of fluorescence brightness, base number removed [2]: −0.343 | average value of fluorescence brightness [3]: 27.426 | average value of fluorescence brightness, base number removed [3]: −0.357 | average value of fluorescence brightness [5]: 26.46 | average value of fluorescence brightness, base number removed [5]: −1.323 | average value of fluorescence brightness, base number removed (Initial): 0 | average value of fluorescence brightness [4]: 27.783 | blocking effect on the sodium ion channel (result analysis in words): can block the sodium ion channel of Trpm5 bitter receptor

CC1CCC(C(C)C)C(=O)C1 (stereo not shown) [Menthone, 5-methyl-2-isopropylcyclohexanone]
average value of fluorescence brightness (Addition of drugs): 25.48 | average value of fluorescence brightness, base number removed (Addition of drugs): −0.076 | average value of fluorescence brightness [1]: 25.415 | average value of fluorescence brightness, base number removed [1]: −0.141 | average value of fluorescence brightness [2]: 25.447 | average value of fluorescence brightness, base number removed [2]: −0.109 | average value of fluorescence brightness [3]: 25.4 | average value of fluorescence brightness, base number removed [3]: −0.156 | average value of fluorescence brightness, base number removed (Initial): 0 | average value of fluorescence brightness [4]: 25.556 | blocking effect on the sodium ion channel (result analysis in words): can block the sodium ion channel of Trpm5 bitter receptor

COc1ccc(CCN(C)CCCC(C#N)(c2ccc(OC)c(OC)c2)C(C)C)cc1OC (stereo not shown) [Verapamil, 5-((3,4-dimethoxyphenylethyl)methylamino)-2-(3,4-dimethoxyphenyl)-2-isopropylvaleronitrile, reference compound]
average value of fluorescence brightness (Addition of drugs): 27.77 | average value of fluorescence brightness, base number removed (Addition of drugs): −0.085 | average value of fluorescence brightness [1]: 28.089 | average value of fluorescence brightness, base number removed [1]: 0.234 | average value of fluorescence brightness [2]: 27.651 | average value of fluorescence brightness, base number removed [2]: −0.204 | average value of fluorescence brightness [3]: 27.574 | average value of fluorescence brightness, base number removed [3]: −0.281 | average value of fluorescence brightness, base number removed (Initial): 0 | average value of fluorescence brightness [4]: 27.855 | blocking effect on the sodium ion channel (result analysis in words): have poor effects and do not have bitterness masking effect

CC(C)=CCCC(C)=CC=O [Citral, citral]
average value of fluorescence brightness (Addition of drugs): 29.943 | average value of fluorescence brightness, base number removed (Addition of drugs): −0.335 | average value of fluorescence brightness [1]: 29.766 | average value of fluorescence brightness, base number removed [1]: −0.512 | average value of fluorescence brightness [2]: 29.742 | average value of fluorescence brightness, base number removed [2]: −0.536 | average value of fluorescence brightness [3]: 29.647 | average value of fluorescence brightness, base number removed [3]: −0.631 | average value of fluorescence brightness, base number removed (Initial): 0 | average value of fluorescence brightness [4]: 30.278 | blocking effect on the sodium ion channel (result analysis in words): can block the sodium ion channel of Trpm5 bitter receptor

CCCCC[C@H](O)CC(=O)CCc1ccc(O)c(OC)c1 [Gingerol, 6-gingerol]
average value of fluorescence brightness (Addition of drugs): 25.244 | average value of fluorescence brightness, base number removed (Addition of drugs): −0.093 | average value of fluorescence brightness [1]: 25.15 | average value of fluorescence brightness, base number removed [1]: −0.187 | average value of fluorescence brightness [2]: 25.137 | average value of fluorescence brightness, base number removed [2]: −0.2 | average value of fluorescence brightness [3]: 25.08 | average value of fluorescence brightness, base number removed [3]: −0.257 | average value of fluorescence brightness, base number removed (Initial): 0 | average value of fluorescence brightness [4]: 25.337 | blocking effect on the sodium ion channel (result analysis in words): can block the sodium ion channel of Trpm5 bitter receptor

C=CCc1ccc(OC(C)=O)c(OC)c1 [Eugenol acetate]
average value of fluorescence brightness (Addition of drugs): 28.103 | average value of fluorescence brightness, base number removed (Addition of drugs): −0.125 | average value of fluorescence brightness [1]: 27.797 | average value of fluorescence brightness, base number removed [1]: −0.431 | average value of fluorescence brightness [2]: 26.368 | average value of fluorescence brightness, base number removed [2]: −1.86 | average value of fluorescence brightness [3]: 26.329 | average value of fluorescence brightness, base number removed [3]: −1.899 | average value of fluorescence brightness, base number removed (Initial): 0 | average value of fluorescence brightness [4]: 28.228 | blocking effect on the sodium ion channel (result analysis in words): can block the sodium ion channel of Trpm5 bitter receptor
